Data as given in PubChem BioAssay AID588780 (Sanford-Burnham Center for Chemical Genomics, 2011).
Activity calls are given as the source filed them.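 The calls were made as follows: active = compounds whose fitted half-maximal concentration in the cell-protection dose series is at or below a set limit; inactive = the rest.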

These compounds were tested on H9c2 cardiomyocytes, 2-deoxyglucose stress, ATP luminescence, 2 h (assay: protection of cardiomyocytes from 2-deoxyglucose injury, dose response, cell-based, 2-deoxyglucose stress, uHTS hits (AID 588780)).
In the case of `CCCCn1c(N)c(Br)c(=O)[nH]c1=O`, the IC50 is reported as > 79 µM (inactive).
In the case of `Cc1cc(C)n(-c2ccc3cccc(NS(C)(=O)=O)c3n2)n1`, the IC50 is reported as > 79 µM (inactive).
`COc1cc(Nc2nc3ccccc3n3nnnc23)cc(OC)c1OC` was tested, and the IC50 was > 79 µM (inactive).
`Oc1ccc2oc3c(c2c1C=NCc1ccncc1)CCCC3` was tested, and the IC50 was > 79 µM (inactive).
In the case of `Nc1nonc1-n1nnc(C(=O)N/N=C/c2ccccn2)c1CNc1ccccc1`, the IC50 is reported as 37.7 µM (inactive).
`COc1cc(/C=C/c2nc3ccccc3c(=O)n2-c2ccc(O)cc2)ccc1O` gave an IC50 of 9.14 µM.
For `COc1ccc(-c2cc(NC=O)c3ncc(-c4ccc(C(C)=O)cc4)n3c2)cn1`, the IC50 was > 79 µM (inactive).
In the case of `COc1ccc(-n2c(/C=C/c3ccc(O)c(OC)c3)nc3ccccc3c2=O)cc1`, the IC50 is reported as > 79 µM (inactive).
`COc1cc(NC(=O)c2csc(-c3ccncc3)n2)cc(C(=O)Nc2cccc(C(F)(F)F)c2)c1` was tested, and the IC50 was 8.47 µM.
`CSc1nsc(SC)c1C(=O)N1CCN(S(=O)(=O)c2ccc(C)cc2)C1C(C)C` (stereo unspecified) gave an IC50 of 21.7 µM.
In the case of `O=c1c2ccccc2nc(CSc2ncnc3nc[nH]c23)n1-c1ccc(Cl)c(Cl)c1`, the IC50 is reported as > 79 µM (inactive).
`CCOC(=O)C1C(=O)NC(SCC(=O)OC)=C(C#N)C1c1ccccc1OCC` (stereo unspecified) gave an IC50 of 17 µM.
`CC(=O)OCc1nc2sc(C)c(C)c2c(=O)[nH]1` was tested, and the IC50 was > 79 µM (inactive).
For `CCOC(=O)C1=C(C)NC(C)=C(C(=O)OCC)C1C(=O)OCC(=O)NC(C)C`, the IC50 was 19.7 µM.
Work on `CCOc1cc(-c2cc(-c3ccc(N)cc3)nc(N)c2C#N)ccc1O` yielded an IC50 of 12.3 µM.
In the case of `CC(=O)c1cccc(-c2cnc3c(NC=O)cc(-c4ccc(F)cc4)cn23)c1`, the IC50 is reported as > 79 µM (inactive).
`CN(C)S(=O)(=O)c1ccc(NC(=O)COC(=O)Cn2[nH]c(=O)c3ccccc3c2=O)cc1` was tested, and the IC50 was 9.56 µM.
`Clc1nc2sccn2c1/C=N/n1cnc2ccccc21` was tested, and the IC50 was > 79 µM (inactive).
`COc1ccc(-c2cc(C(=O)NNC(=O)c3csc(N4CCOCC4)n3)c3ccccc3n2)cc1` was tested, and the IC50 was > 79 µM (inactive).
For `CCOC(=O)c1ccccc1NC(=O)CSc1ccc(-c2ccccn2)nn1`, the IC50 was 23.4 µM.
`C=CCn1cnc2c(c1=O)c1nc3ccccc3nc1n2/N=C/c1cc(OC)c(OC)c(OC)c1` was tested, and the IC50 was > 79 µM (inactive).
`O=C(CCc1nc2ccccc2c(=O)[nH]1)N1CCN(S(=O)(=O)c2ccc(F)cc2)CC1` was tested, and the IC50 was > 79 µM (inactive).
`C=CCOC(=O)C1=C[C@H](c2cn(C(C)=O)c3ccccc23)C[C@H](OCc2ccc(CO)cc2)O1` showed an IC50 of 17.9 µM.
`O=C(N/N=C/c1ccc(-c2cccc([N+](=O)[O-])c2)o1)c1ccc([N+](=O)[O-])cc1` was tested, and the IC50 was > 79 µM (inactive).
With `O=C(CCCSc1nc2sc3c(c2c(=O)[nH]1)CCC3)NCCO` the IC50 was > 79 µM (inactive).
Compound `CC(C)=NNc1cnnc2ccc([N+](=O)[O-])cc12` has an IC50 of 12.2 µM.
In the case of `COc1cc(/C=N/NC(=O)c2ccncc2)ccc1OCC(=O)Nc1ccc(C)c(C)c1`, the IC50 is reported as > 79 µM (inactive).
For `CCCc1cc2c(cc1NC(=O)c1ccc(Br)cc1)OCO2`, the IC50 was 29.3 µM.
In the case of `Cn1c(=O)c2c(nc(Br)n2Cc2ccc3ccccc3c2)n(C)c1=O`, the IC50 is reported as > 79 µM (inactive).
For `CC(=O)c1ccc(-c2cnc3c(NC=O)cc(-c4cccc(NS(C)(=O)=O)c4)cn23)cc1`, the IC50 was > 79 µM (inactive).
In the case of `CNC(=O)/C(C#N)=C/c1c(N(Cc2ccccc2)Cc2ccccc2)nc2ccccn2c1=O`, the IC50 is reported as 16 µM.
`Cc1ccccc1C(C(=O)NCc1ccccc1)N(Cc1ccco1)C(=O)c1ccccn1` (stereo unspecified) showed an IC50 of 23.9 µM.
In the case of `COc1ccc(OCC(=O)NCc2n[nH]c(=O)c3ccccc23)cc1`, the IC50 is reported as > 79 µM (inactive).
`COc1ccc(CNC(=O)c2ccc(Cn3nc(C)c([N+](=O)[O-])c3C)o2)cc1` was tested, and the IC50 was > 79 µM (inactive).
With `CC(=O)Nc1ccc(-c2csc(NC(=O)Nc3ccccc3)n2)cc1` the IC50 was 36.3 µM (inactive).
`CCC(CC)C(=O)N(CCc1ccc(OC)cc1)Cc1nc2ccccc2c(=O)[nH]1` was tested, and the IC50 was > 79 µM (inactive).
In the case of `O=C(CCCSc1ccccc1)Nc1nc(-c2ccccn2)cs1`, the IC50 is reported as > 79 µM (inactive).
With `COc1cc(-c2cc(NC=O)c3ncc(-c4cccc(C(F)(F)F)c4)n3c2)cc(OC)c1OC` the IC50 was > 79 µM (inactive).
`CCOC(=O)c1c(C)[nH]c(C(=O)COc2ccc3ccc(=O)oc3c2)c1C` was tested, and the IC50 was > 79 µM (inactive).
With `Cc1cc(NC(=O)COc2nnc(-c3ccccc3)c3ccccc23)no1` the IC50 was > 79 µM (inactive).
With `COc1ccc(CCn2c(Br)nc3c2c(=O)[nH]c(=O)n3C)cc1` the IC50 was > 79 µM (inactive).
For `CCCC(=O)Nc1nc2ccc(NC(=O)c3ccc(Br)o3)cc2s1`, the IC50 was > 79 µM (inactive).
`O=C(N/N=C/c1ccccn1)c1ccc(NC(=O)c2cccc([N+](=O)[O-])c2)cc1` gave an IC50 of 11.5 µM.
In the case of `O=C(CCc1nc2ccccc2c(=O)[nH]1)NNC(=O)c1cccc(Cl)c1`, the IC50 is reported as > 79 µM (inactive).
With `O=C(N/N=C/c1ccccn1)c1cc(C2CC2)nc2ccccc12` the IC50 was > 79 µM (inactive).
In the case of `COc1cc2c(C(=O)NCc3ccccn3)cn(CC(C)C)c(=O)c2cc1OC`, the IC50 is reported as 54.6 µM (inactive).
In the case of `COc1cccc(-c2cnc3c(NC=O)cc(-c4cccc(NC(C)=O)c4)cn23)c1`, the IC50 is reported as > 79 µM (inactive).
For `Cn1c2ccc(F)cc2c2nnc(NN)nc21`, the IC50 was > 79 µM (inactive).
In the case of `C#CCOc1nc(Nc2cccc([N+](=O)[O-])c2)nc(OCC#C)n1`, the IC50 is reported as > 79 µM (inactive).
With `CCOC(=O)C1=C(C)N=c2s/c(=C\c3ccncc3)c(=O)n2C1c1ccc2c(c1)OCO2` (stereo unspecified) the IC50 was 41.1 µM (inactive).
For `NC(=O)c1oc2ccccc2c1NC(=O)c1ccco1`, the IC50 was 29.4 µM.
With `COc1cc(C(=O)Nc2cccc(-c3nnc(-c4ccco4)o3)c2)ccc1OC(C)=O` the IC50 was > 79 µM (inactive).
`CCOc1cccc(-c2nn3c(-c4ccco4)nnc3s2)c1` showed an IC50 of 22.6 µM.
For `COc1cc(OC)cc(C(=O)NNC(=O)CCc2nc3ccccc3c(=O)[nH]2)c1`, the IC50 was > 79 µM (inactive).
In the case of `COc1ccccc1NC(=O)COc1cccc2c1CCNC2=O`, the IC50 is reported as > 79 µM (inactive).
For `O=C(N/N=C/c1ccncc1)c1ccc(COc2cccc3cccnc23)cc1`, the IC50 was > 79 µM (inactive).
In the case of `CC(C)(C)OC(=O)NCC12C=CC(O1)C1C(=O)N(Cc3ccccc3)C(=O)C12` (stereo unspecified), the IC50 is reported as > 79 µM (inactive).
With `COc1cc(OC)cc(C(=O)NNC(=O)c2ccccn2)c1` the IC50 was > 79 µM (inactive).
With `COCCn1nnnc1C(C(C)C)N(Cc1cccnc1)Cc1cc2cc(OC)ccc2[nH]c1=O` (stereo unspecified) the IC50 was > 79 µM (inactive).
With `Cc1cc2ccccc2c(=O)[nH]1` the IC50 was 7.23 µM.
Work on `COc1ccc2cc3cc(C(=O)NCCc4ccc(OC)c(OC)c4)oc3nc2c1` yielded an IC50 of 7.71 µM.
For `CC(C)(C)N=Cc1c(O)ccc2oc3c(c12)CCCC3`, the IC50 was > 79 µM (inactive).
In the case of `O=C(Nc1cccc(Cl)c1)c1nc[nH]c1C(=O)NCCCCNC(=O)c1[nH]cnc1C(=O)Nc1cccc(Cl)c1`, the IC50 is reported as > 79 µM (inactive).
`COc1ccc(S(=O)(=O)N2CCOCC2)cc1NC(=O)c1cccc2c(=O)c(C)c(-c3ccccc3)oc12` gave an IC50 of 18 µM.
For `O=C(COc1cccc2c1CCNC2=O)Nc1cccc(F)c1`, the IC50 was 28 µM.
Compound `COc1cc(-c2cc(C(=O)N3CCN(c4ccccn4)CC3)c3ccccc3n2)cc(OC)c1OC` has an IC50 of 14.4 µM.
`CCOC(=O)N1CCC(N2C(=O)c3ccccc3C2Nc2cc(OC)c(OC)c(OC)c2)CC1` (stereo unspecified) was tested, and the IC50 was > 79 µM (inactive).
`Cc1cc(O)c(C=Nc2ccc(N3CCOCC3)cc2)c(C)c1Cl` was tested, and the IC50 was > 79 µM (inactive).
Work on `COC(=O)c1cc(NC(=O)c2cc3ccccc3o2)cc(C(=O)OC)c1` yielded an IC50 of 20.5 µM.
`COc1ccc(C(=O)COC(=O)C(CCCCN2C(=O)C3C4C=CC(C4)C3C2=O)N2C(=O)C3C4C=CC(C4)C3C2=O)cc1` (stereo unspecified) gave an IC50 of 13.7 µM.
For `COc1cc(C(=O)NCC(=O)N/N=C/c2ccc(-c3cccc([N+](=O)[O-])c3)o2)cc(OC)c1OC`, the IC50 was 12.5 µM.
For `CCOC(=O)c1cnc(Nc2nc3ccccc3o2)nc1CSc1nnc(C)s1`, the IC50 was > 79 µM (inactive).
`O=C(CCc1nc2ccccc2c(=O)[nH]1)NCCN1C(=O)S/C(=C\c2ccc(OC(F)F)cc2)C1=O` was tested, and the IC50 was > 79 µM (inactive).
In the case of `COc1ccc(/C=N/NC(=O)c2cc(-c3ccc4c(c3)OCO4)n[nH]2)cc1OC`, the IC50 is reported as > 79 µM (inactive).
For `CN(C)S(=O)(=O)n1cc(/C=C(\NC(=O)c2ccccc2F)C(=O)NCCN2CCOCC2)c2ccccc21`, the IC50 was > 79 µM (inactive).
In the case of `CCn1nc(C(=O)Nc2nc(-c3ccccn3)cs2)c2ccccc2c1=O`, the IC50 is reported as > 79 µM (inactive).
`COc1ccc(/C=C/C(=O)c2ccccc2O)cc1CN1CCOCC1` was tested, and the IC50 was 36.7 µM (inactive).
With `COc1ccc2[nH]c(=O)c(CN(Cc3ccco3)Cc3nnnn3Cc3ccccc3)cc2c1` the IC50 was > 79 µM (inactive).
In the case of `c1ccc(-c2nc(-n3ccnc3)nc(-n3ccnc3)n2)cc1`, the IC50 is reported as > 79 µM (inactive).
For `O=c1[nH]c(CSc2nnc(-c3cccnc3)n2C2CCCCC2)nc2ccccc12`, the IC50 was > 79 µM (inactive).
`Cn1c(=O)c2c(nc(NCc3ccc4c(c3)OCO4)n2C)n(C)c1=O` was tested, and the IC50 was > 79 µM (inactive).
For `O=C(CN1CCN(c2ccccc2F)CC1)c1ccc(O)c(O)c1`, the IC50 was > 79 µM (inactive).
In the case of `Cc1ccc(C)c(C(=O)COC(=O)Cn2[nH]c(=O)c3ccccc3c2=O)c1`, the IC50 is reported as > 79 µM (inactive).
`COc1cc(C(=O)Nc2cc3c(cc2N2CCCCC2)n(C)c(=O)n3C)cc(OC)c1OC` was tested, and the IC50 was 25.4 µM.
`CCOC(=O)C1=C(C)NC(C)=C(C(=O)OCC)C1C(=O)OCC(=O)NC1CCCCC1` showed an IC50 of 6.02 µM.
In the case of `COc1ccc(-c2cc(NC(C)=O)c3ncc(-c4ccc(OC)c(OC)c4)n3c2)cc1OC`, the IC50 is reported as > 79 µM (inactive).
For `Cc1ccc(N=Cc2cc(Cl)cc(Cl)c2O)nc1`, the IC50 was > 79 µM (inactive).
With `CCCCCCn1c(C)nc2c(c1=O)c1nc3ccccc3nc1n2/N=C/c1ccco1` the IC50 was > 79 µM (inactive).
Compound `N#Cc1c(-c2ccco2)cc(-c2ccccn2)nc1N` has an IC50 of 22.7 µM.
In the case of `CCCN(CCC)S(=O)(=O)c1ccc(C(=O)Nc2nnc(-c3cc(OC)cc(OC)c3)o2)cc1`, the IC50 is reported as 9.06 µM.
`COc1cccc(OC)c1C(=O)Nc1ccc(Br)c(C(=O)c2ccccc2)c1` showed an IC50 of 10.7 µM.
`COc1ccc(CSc2nc3ccccc3c(=O)[nH]2)cc1F` was tested, and the IC50 was > 79 µM (inactive).
For `CC1(C)Cc2c(C#N)c(SCc3nc4ccccc4[nH]3)nc(N3CCOCC3)c2CO1`, the IC50 was > 79 µM (inactive).
For `COc1cc(-c2cc(NC=O)c3ncc(-c4ccc(C(C)=O)cc4)n3c2)cc(OC)c1OC`, the IC50 was > 79 µM (inactive).
`O=C(COC(=O)c1ccc([N+](=O)[O-])s1)Nc1ccc(Cl)cn1` was tested, and the IC50 was > 79 µM (inactive).
In the case of `COc1cccc(/C=N/Nc2ncnc3scc(-c4ccccc4)c23)c1OC`, the IC50 is reported as > 79 µM (inactive).
